Measurements taken from US11976057B2, “MrgX2 antagonists” (GlaxoSmithKline Intellectual Property Development Limited, priority 2020, dated 2024).

These compounds were tested against T1, human MRGPRX2 (Homo sapiens, UniProt Q96LB1) (assay: Ca2+ mobilization assay (FLIPR TETRA): inhibition of Cortistatin-14 mediated MRGPRX2 activation).
T1 sequence (Q96LB1 1-330): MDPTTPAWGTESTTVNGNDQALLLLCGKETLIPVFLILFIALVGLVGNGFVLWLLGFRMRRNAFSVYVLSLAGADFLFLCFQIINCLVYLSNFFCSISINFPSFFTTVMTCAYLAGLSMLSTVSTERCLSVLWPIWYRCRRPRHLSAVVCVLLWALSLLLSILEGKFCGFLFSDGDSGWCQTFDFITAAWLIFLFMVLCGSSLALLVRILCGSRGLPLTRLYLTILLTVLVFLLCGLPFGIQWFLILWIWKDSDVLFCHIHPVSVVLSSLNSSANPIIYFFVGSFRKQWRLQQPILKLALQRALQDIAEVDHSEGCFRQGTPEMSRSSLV

Compound | IC50 [nM]
CC(C(=O)Nc1ccc(OCC(F)F)cn1)N1CCC(F)(F)[C@@H](c2ccc(=O)[nH]c2)C1 (stereo partly drawn) [Example 49, 2-((S)-4,4-difluoro-3-(6-oxo-1,6-dihydropyridin-3-yl)piperidin-1-yl)-N-(5-(2,2-difluoroethoxy)pyridin-2-yl)propanamide] | 100 to 3160
C[C@@H](C(=O)Nc1ccc(C(=O)OC2CCC2)cn1)N1CCC(F)(F)[C@@H](c2ccc(=O)[nH]c2)C1 [Example 37, cyclobutyl 6-((S)-2-((S)-4,4-difluoro-3-(6-oxo-1,6-dihydropyridin-3-yl)piperidin-1-yl)propanamido) nicotinate] | 100 to 3160
C[C@@H](C(=O)Nc1ccc(OCC2CC2)cn1)N1CCC(F)(F)[C@@H](c2ccc(=O)[nH]c2)C1 [Example 75, (S)-N-(5-(cyclopropyl-methoxy)pyridin-2-yl)-2-((S)-4,4-difluoro-3-(6-oxo-1,6-dihydropyridin-3-yl)piperidin-1-yl)propanamide] | 10 to 100
C[C@@H](C(=O)Nc1cnc(Oc2c(F)cc(F)cc2F)cn1)N1CCC(F)(F)[C@@H](c2cc[n+]([O-])cc2)C1 [Example 119, 4-((S)-4,4-difluoro-1-((S)-1-oxo-1-((5-(2,4,6-trifluorophenoxy)pyrazin-2-yl)amino)propan-2-yl)piperidin-3-yl)pyridine 1-oxide] | ≤ 10
C[C@@H](C(=O)Nc1ccc(Cl)cn1)N1CCC[C@@H](c2c[nH]c(=O)c(CN)c2)C1 (single isomer, unassigned) [Example 175] | 3160 to 31600
C[C@@H](C(=O)Nc1ccc(Oc2ccc(F)cc2F)cn1)[C@H]1CCC[C@@H](c2ccc(=O)[nH]c2)C1 [Example 282, (R)—N-(5-(2,4-difluorophenoxy)pyridin-2-yl)-2-((1S,3R)-3-(6-oxo-1,6-dihydropyridin-3-yl)cyclohexyl)propanamide] | ≤ 10
C[C@@H](C(=O)Nc1ccc(C2CC2)cn1)N1CCC(F)(F)[C@@H](c2ccc(=O)[nH]c2)C1 [Example 15, (S)-N-(5-cyclopropyl-pyridin-2-yl)-2-((S)-4,4-difluoro-3-(6-oxo-1,6-dihydropyridin-3-yl)piperidin-1-yl)propanaraide] | 10 to 100
C[C@@H](C(=O)Nc1ccc(Oc2ccc(F)cn2)cn1)[C@H]1CCC(F)(F)[C@@H](c2ccc(=O)[nH]c2)C1 [Example 279, (R)-2-((1S,3R)-4,4-difluoro-3-(6-oxo-1,6-dihydropyridin-3-yl)cyclohexyl)-N-(5-((5-fluoropyridin-2-yl)oxy)pyridin-2-yl)propanamide] | ≤ 10
C[C@@H](C(=O)Nc1cc(F)c(OCC2CC2)cn1)N1CCC(F)(F)[C@@H](c2ccc(=O)[nH]c2)C1 [Example 76, (S)-N-(5-(cyclopropyl-methoxy)-4-fluoropyridin-2-yl)-2-((S)-4,4-difluoro-3-(6-oxo-1,6-dihydropyridin-3-yl)piperidin-1-yl)propanamide] | 10 to 100
C[C@@H](C(=O)Nc1ccc(Oc2ncc(F)cc2F)cn1)[C@H]1CCC(F)(F)[C@@H](c2cc[n+]([O-])cc2)C1 [Example 293, 4-((1R,5S)-5-((R)-1-((5-((3,5-difluoropyridin-2-yl)oxy)pyridin-2-yl)amino)-1-oxopropan-2-yl)-2,2-difluorocyclohexyl)pyridine 1-oxide] | ≤ 10
CC(=O)NCc1cc([C@H]2CN([C@@H](C)C(=O)Nc3ccc(Oc4ccc(F)cc4)cn3)CCC2(F)F)c[nH]c1=O (single isomer, unassigned) [Example 245] | ≤ 10
C[C@@H](C(=O)Nc1ncc(OCC2CC2)cn1)N1CCC(F)(F)[C@@H](c2ccc(=O)[nH]c2)C1 [Example 35, (S)-N-(5-(cyclopropyl-methoxy)pyrimidin-2-yl)-2-((S)-4,4-difluoro-3-(6-oxo-1,6-dihydropyridin-3-yl)piperidin-1-yl)propanamide] | 100 to 3160
C[C@@H](C(=O)Nc1ccc(F)cn1)N1CCC(F)(F)C(c2cc(CO)c(=O)n(CC(F)(F)F)c2)C1 (stereo partly drawn) [Example 199, (2S)-2-(4,4-difluoro-3-(5-(hydroxymethyl)-6-oxo-1-(2,2,2-trifluoroethyl)-1,6-dihydropyridin-3-yl)piperidin-1-yl)-N-(5-fluoropyridin-2-yl)propanamide] | 100 to 3160
CC(C)n1cc(C2CN([C@@H](C)C(=O)Nc3ccc(F)cn3)CCC2(F)F)ccc1=O (stereo partly drawn) [Example 194, (2S)-2-(4,4-difluoro-3-(1-isopropyl-6-oxo-1,6-dihydropyridin-3-yl)piperidin-1-yl)-N-(5-fluoropyridin-2-yl)propanamide] | 100 to 3160
C[C@@H](C(=O)Nc1ccc(Oc2ccc(F)cc2F)cn1)N1CCC[C@@H](c2cc[n+]([O-])cc2)C1 [Example 182, 4-((S)-1-((S)-1-((5-(2,4-difluorophenoxy)pyridin-2-yl)amino)-1-oxopropan-2-yl)piperidin-3-yl)pyridine 1-oxide] | ≤ 10
CC(C)c1ccc(NC(=O)C(C)N2CCC(F)(F)[C@@H](c3ccc(=O)[nH]c3)C2)nc1 (stereo partly drawn) [Example 82, 2-((S)-4,4-difluoro-3-(6-oxo-1,6-dihydropyridin-3-yl)piperidin-1-yl)-N-(5-isopropylpyridin-2-yl)propanamide] | 100 to 3160
C[C@@H](C(=O)Nc1ccc(F)cn1)N1CCC(F)(F)[C@@H](c2c[nH]c(=O)c(N)c2)C1 [Example 142, (S)-2-((S)-3-(5-amino-6-oxo-1,6-dihydropyridin-3-yl)-4,4-difluoropiperidin-1-yl)-N-(5-fluoropyridin-2-yl)propanamide] | 100 to 3160
COc1ccc(NC(=O)C(C)N2CCC(F)(F)[C@@H](c3ccc(=O)[nH]c3)C2)nn1 (stereo partly drawn) [Example 43, 2-((S)-4,4-difluoro-3-(6-oxo-1,6-dihydropyridin-3-yl)piperidin-1-yl)-N-(6-methoxy-pyridazin-3-yl)propanamide] | 3160 to 31600
CC(C(=O)Nc1ncc(Oc2ccc(F)cc2)cc1F)N1CCC(F)(F)[C@@H](c2ccc(=O)[nH]c2)C1 (stereo partly drawn) [Example 86, 2-((S)-4,4-difluoro-3-(6-oxo-1,6-dihydropyridin-3-yl)piperidin-1-yl)-N-(3-fluoro-5-(4-fluorophenoxy)pyridin-2-yl)propanamide] | 10 to 100
C[C@@H](C(=O)Nc1ccc(C(F)(F)c2ccc(F)cc2)cn1)N1CCC(F)(F)[C@@H](c2ccc(=O)[nH]c2)C1 [Example 102, (S)-N-(5-(difluoro(4-fluorophenyl)methyl)pyridin-2-yl)-2-((S)-4,4-difluoro-3-(6-oxo-1,6-dihydropyridin-3-yl)piperidin-1-yl)propanamide] | 10 to 100
CC(C(=O)Nc1ccc2cc(C3CC3)cnc2n1)N1CCC(F)(F)[C@@H](c2ccc(=O)[nH]c2)C1 (stereo partly drawn) [Example 77, N-(6-cyclopropyl-1,8-naphthyridin-2-yl)-2-((S)-4,4-difluoro-3-(6-oxo-1,6-dihydropyridin-3-yl)piperidin-1-yl)propanamide] | 100 to 3160
C[C@@H](C(=O)Nc1ccc(OCC2CCC2)nn1)N1CCC(F)(F)[C@@H](c2ccc(=O)[nH]c2)C1 [Example 71, (S)-N-(6-(cyclobutyl-methoxy)pyridazin-3-yl)-2-((S)-4,4-difluoro-3-(6-oxo-1,6-dihydropyridin-3-yl)piperidin-1-yl)propanamide] | 100 to 3160
C[C@@H](C(=O)Nc1cnc(Oc2ccc(F)cc2)cn1)[C@H]1CCC(F)(F)[C@@H](c2cc[n+]([O-])cc2)C1 [Example 292, 4-((1R,5S)-2,2-difluoro-5-((R)-1-((5-(4-fluorophenoxy)pyrazin-2-yl)amino)-1-oxopropan-2-yl)cyclohexyl)pyridine 1-oxide] | 10 to 100
